Laboratory results from ChEMBL document CHEMBL1201862, “PubChem BioAssay data set” (2004).
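96-well plates; 48 h exposure; 5 concentrations. Endpoints by linear interpolation between flanking doses. Not reached: highest tested concentration assigned. GI50 is the concentration that inhibits growth by half.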 Calls of active or inactive are those of the source. Cut-off read from the data, not from the text of the source: active = GI50 up to about 1.1 µM and inactive = higher.

Experiments:
Assay in all cases: DTP human tumour cell line panel, 48 h
[1] = system: A498
[2] = system: ACHN
[3] = system: BT-549
[4] = system: CCRF-CEM
[5] = system: COLO 205
[6] = system: Hs-578T
[7] = system: LOX IMVI
[8] = system: MCF7
[9] = system: NCI-H226
[10] = system: NCI-H522
[11] = system: NCI/ADR-RES
[12] = system: OVCAR-3
[13] = system: OVCAR-4
[14] = system: OVCAR-8
[15] = system: SF-539
[16] = system: SK-MEL-28
[17] = system: SNB-19
[18] = system: TK-10
[19] = system: U-251
[20] = system: K562

Measured: GI50

Cc1ccc(S(=O)(=O)NCc2cccc([N+](=O)[O-])c2)cc1
inactive: [1] > 100 µM | [2] > 100 µM | [3] > 100 µM | [4] 27.8 µM | [5] > 100 µM | [6] > 100 µM | [7] > 100 µM | [8] > 100 µM | [9] > 100 µM | [10] 64.6 µM | [11] > 100 µM | [12] 72.8 µM | [13] > 100 µM | [14] > 100 µM | [15] > 100 µM | [16] > 100 µM | [17] > 100 µM | [18] > 100 µM | [19] > 100 µM

Cc1sc2nc(-c3cc([N+](=O)[O-])c(Cl)cc3Cl)c(/C=N/NC(=N)N)n2c1C
inactive: [1] 19.5 µM | [2] 5.22 µM | [3] 3.59 µM | [4] 4.31 µM | [6] 16.7 µM | [20] 3.06 µM | [7] 2.29 µM | [8] 2.86 µM | [9] 26.8 µM | [10] 8.47 µM | [11] 31.7 µM | [12] 4.06 µM | [13] 2.36 µM | [14] 5.7 µM | [15] 30.5 µM | [16] 2.4 µM | [18] 13.9 µM | [19] 4.02 µM

Nc1cccnc1NCC1(CO)CCCC1
inactive: [1] > 100 µM | [2] > 100 µM | [3] > 100 µM | [4] > 100 µM | [5] > 100 µM | [6] > 100 µM | [20] > 100 µM | [7] > 100 µM | [8] > 100 µM | [9] > 100 µM | [10] > 100 µM | [11] > 100 µM | [12] > 100 µM | [13] > 100 µM | [14] > 100 µM | [15] > 100 µM | [16] > 100 µM | [18] > 100 µM | [19] > 100 µM

CC(C)(C)C1CC[C@H](O)[C@H]([C@H](O)CC2CC(=O)N(c3ccccc3)C(=O)C2)C1 (stereo not given in full)
inactive: [1] > 100 µM | [2] > 100 µM | [3] > 100 µM | [4] > 100 µM | [6] > 100 µM | [20] > 100 µM | [7] > 100 µM | [8] > 100 µM | [9] > 100 µM | [10] > 100 µM | [11] > 100 µM | [12] > 100 µM | [13] > 100 µM | [14] > 100 µM | [15] > 100 µM | [16] > 100 µM | [17] > 100 µM | [18] > 100 µM | [19] > 100 µM
